Literature values in patent publication US20100143470A1, “CONTROLLED RELEASE PHARMACEUTICAL COMPOSITION CONTAINING THIAZIDES AND ANGIOTENSIN-II-RECEPTOR BLOCKERS” (HANALL PHARMACEUTICAL COMPANY, LTD, priority 2006, published 2010).

Columns and labels:
[1] = orally administered for hypertension therapy

In the case of `NS(=O)(=O)c1cc2c(cc1Cl)NCNS2(=O)=O` [Hydrochlorothiazide, 6-chloro-3,4-dihydro-2H-1,2,4-benzothiadiazine-7-sulfonamide-1,1-dioxide], the blood half-time (in vivo) is given as 5.6 to 14.8 h and the “diuretic effect is sustained” value [1] is given as 6 to 12 h.

In the case of `CCCCc1nc(Cl)c(CO)n1Cc1ccc(-c2ccccc2-c2nn[nH]n2)cc1` [losartan], the “time to reach the highest blood concentration” value (after absorption from the small intestine) is listed as at most 1 h and the blood elimination rate (in vivo) is listed as 600 mL/min.
